Data on two compounds can be found in paper PMC12345137 (mBio, 2025).

Where two headings read alike, the source gives them in different places. Positions of bridges follow the written chain, without caps; N, C: chain ends. Residues, ends and D or L forms follow the SMILES beside them.

One test addresses S. epidermidis agr-II (Staphylococcus epidermidis, UniProt Q8VSX5). Description: cell-based. In kind it is cell-based. The following applies: fluorescent reporter strain; peptides tested at 1000, 50, 2.5, 0.125 nM or in dose-response. The procedure:
(§1) Peptides were evaluated for the ability to interfere with agr-mediated quorum sensing in S. aureus (AH1677, AH430, AH1747, and AH1872 for agr-I–IV, respectively) ([40]) using reporter strains expressing yellow fluorescent protein (YFP) upon agr activation. Interference with agr-mediated quorum sensing in S. epidermidis (AH3408, AH3623, and AH3409 for agr-I–III, respectively) ([45]), and S. lugdunensis (AH4031 for agr-I) ([37]) was evaluated using reporter strains expressing superfolder green fluorescent protein (sGFP) upon agr activation. Overnight cultures of the reporter strains were grown in TSB medium containing chloramphenicol (CAM, 10 μg/mL for S. aureus) or erythromycin (ERM, 10 μg/mL of S. epidermidis and S. lugdunensis) and diluted 1:100 in fresh TSB medium containing the same antibiotic. Assays were performed in sterile black 96-well plates with a clear bottom. […] DMSO stock solutions of peptides (1 mM) were diluted in TSB media and added (15 μL) in technical triplicate to the 96-well plate, followed by diluted bacterial overnight cultures (135 μL). Control wells for 100% agr activity were wells replacing the peptide solution with TSB medium (15 μL). […] Wells containing 150 μL TSB medium were used to measure background fluorescence. The 96-well plates were incubated in a humidified incubator at 37°C shaking at 1,000 rpm for 22–24 h and fluorescence (for GFP: excitation 479 nm, emission 520 nm; for YFP: excitation 500 nm, emission 541 nm; automatic gain), and OD600 values were subsequently measured using a plate reader. Background fluorescence was subtracted from all wells and further normalized to the corresponding OD600 value of the respective wells. The average fluorescence of control wells was used as a relative measure for 100% activation of the agr-circuit, and bar graphs were generated using GraphPad Prism 10.4 software. All assays were performed in at least a biological duplicate.
(§2) Overnight cultures of the reporter strains were grown in TSB medium containing chloramphenicol (CAM, 10 μg/mL for S. aureus) or erythromycin (ERM, 10 μg/mL of S. epidermidis and S. lugdunensis) and diluted 1:100 in fresh TSB medium containing the same antibiotic. Assays were performed in sterile black 96-well plates with clear bottoms. Peptide solutions (15 μL) in 1:5 serial dilutions from DMSO stock solutions (1 mM) in TSB medium were added to the 96-well plate in technical duplicate followed by diluted bacterial overnight cultures (135 μL). Control wells for 100% agr activity were wells replacing the peptide solution with TSB medium (15 μL). Wells containing 150 μL TSB medium were used to measure background fluorescence. The 96-well plates were incubated in a humidified incubator at 37°C shaking at 1,000 rpm for 22–24 h and fluorescence (for GFP: excitation 479 nm, emission 520 nm; for YFP: excitation 500 nm, emission 541 nm; automatic gain), and OD600 values were subsequently measured using a plate reader. Background fluorescence was subtracted from all wells and further normalized to the corresponding OD600 value of the respective wells. The average fluorescence of control wells was used as a relative measure for 100% activation of the agr-circuit. Relative agr activity was plotted to obtain IC50 values by non-linear regression with variable slope using GraphPad Prism 10.4 software. All assays were performed in biological triplicate.

The target in another test is SA AgrC-I (Staphylococcus aureus, UniProt O07911). Description: β-Lactamase assay, reporter strain RN10829 (P2-agrA:P3-blaZ) with pagrC-I. In kind it is cell-based. From the text:
The β-lactamase reporter strain RN10829 (P2-agrA:P3-blaZ) ([62]), with pagrC-I ([63]), pagrC-II, pagrC-III, or pagrC-IV ([11]), substituting the native agr locus with a chromosomal integration of P2-agrA and P3-blaZ and a plasmid from which a wild-type variant of the corresponding AgrC is expressed, was used to assess inhibition and activation of the AgrC receptor via β-lactamase activity in response to varying concentrations of the QS modulating peptides. Overnight cultures of the reporter strains in TSB medium were diluted 1:250 in fresh TSB medium and grown to OD600 = 0.35–0.40 (early exponential phase) at 37°C. Peptide solutions (10 μL) in 1:10 serial dilutions from DMSO stock solutions (1 mM) in TSB medium (final concentrations = 10 μM–10 pM) were added to each well of a clear 96-well plate as well as solutions (10 μL) of cognate AIP (final concentration = 100 nM) in TSB medium followed by 80 μL of bacterial cells. […] The 96-well plates were incubated at 37°C shaking at 200 rpm for 1 h and immediately frozen down at −80°C to minimize growth during nitrocefin treatment. Next, the 96-well plates were thawed, and OD600 values were determined using a plate reader followed by the addition of 50 μL of nitrocefin solution to the wells (final concentration = 33.3 μg/mL). β-Lactamase activity was monitored at OD486 every 20 s for 10 min at 37°C using a plate-reader. Linear nitrocefin conversion rates were plotted to obtain IC50 values by non-linear regression with variable slope using GraphPad Prism 10.4 software. Assays were performed at least as duplicate determinations in biological triplicate.

The target of another test is SA AgrC-II (Staphylococcus aureus, UniProt O33587). Kind of test: β-Lactamase assay, reporter strain RN10829 (P2-agrA:P3-blaZ) with pagrC-II. In kind it is cell-based. An excerpt: (§3) The β-lactamase reporter strain RN10829 (P2-agrA:P3-blaZ) ([62]), with pagrC-I ([63]), pagrC-II, pagrC-III, or pagrC-IV ([11]), substituting the native agr locus with a chromosomal integration of P2-agrA and P3-blaZ and a plasmid from which a wild-type variant of the corresponding AgrC is expressed, was used to assess inhibition and activation of the AgrC receptor via β-lactamase activity in response to varying concentrations of the QS modulating peptides. Overnight cultures of the reporter strains in TSB medium were diluted 1:250 in fresh TSB medium and grown to OD600 = 0.35–0.40 (early exponential phase) at 37°C. Peptide solutions (10 μL) in 1:10 serial dilutions from DMSO stock solutions (1 mM) in TSB medium (final concentrations = 10 μM–10 pM) were added to each well of a clear 96-well plate as well as solutions (10 μL) of cognate AIP (final concentration = 100 nM) in TSB medium followed by 80 μL of bacterial cells. Control wells for 100% β-lactamase activity were wells replacing peptide solution with TSB media (10 μL), and control wells for 0% β-lactamase activity were wells replacing both peptide and cognate AIP solutions with TSB medium (20 μL). The 96-well plates were incubated at 37°C shaking at 200 rpm for 1 h and immediately frozen down at −80°C to minimize growth during nitrocefin treatment. Next, the 96-well plates were thawed, and OD600 values were determined using a plate reader followed by the addition of 50 μL of nitrocefin solution to the wells (final concentration = 33.3 μg/mL). β-Lactamase activity was monitored at OD486 every 20 s for 10 min at 37°C using a plate-reader. Linear nitrocefin conversion rates were plotted to obtain IC50 values by non-linear regression with variable slope using GraphPad Prism 10.4 software. Assays were performed at least as duplicate determinations in biological triplicate.
SA AgrC-II, sequence (O33587 entry or part of it): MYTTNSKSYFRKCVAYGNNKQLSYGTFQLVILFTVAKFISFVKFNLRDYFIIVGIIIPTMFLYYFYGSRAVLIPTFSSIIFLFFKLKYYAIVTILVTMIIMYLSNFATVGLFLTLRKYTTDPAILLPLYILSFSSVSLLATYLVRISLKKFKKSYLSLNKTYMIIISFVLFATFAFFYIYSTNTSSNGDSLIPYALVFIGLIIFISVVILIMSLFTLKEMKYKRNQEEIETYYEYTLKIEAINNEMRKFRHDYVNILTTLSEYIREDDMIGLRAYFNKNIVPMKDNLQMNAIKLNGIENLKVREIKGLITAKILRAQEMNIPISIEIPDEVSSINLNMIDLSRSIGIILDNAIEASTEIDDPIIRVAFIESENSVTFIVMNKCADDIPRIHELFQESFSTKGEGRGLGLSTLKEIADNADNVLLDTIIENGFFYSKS

For a further test, the target named is SA AgrC-III (Staphylococcus aureus, UniProt O33590). Kind of test: β-Lactamase assay, reporter strain RN10829 (P2-agrA:P3-blaZ) with pagrC-III. In kind it is cell-based.
SA AgrC-III, sequence (O33590 entry or part of it): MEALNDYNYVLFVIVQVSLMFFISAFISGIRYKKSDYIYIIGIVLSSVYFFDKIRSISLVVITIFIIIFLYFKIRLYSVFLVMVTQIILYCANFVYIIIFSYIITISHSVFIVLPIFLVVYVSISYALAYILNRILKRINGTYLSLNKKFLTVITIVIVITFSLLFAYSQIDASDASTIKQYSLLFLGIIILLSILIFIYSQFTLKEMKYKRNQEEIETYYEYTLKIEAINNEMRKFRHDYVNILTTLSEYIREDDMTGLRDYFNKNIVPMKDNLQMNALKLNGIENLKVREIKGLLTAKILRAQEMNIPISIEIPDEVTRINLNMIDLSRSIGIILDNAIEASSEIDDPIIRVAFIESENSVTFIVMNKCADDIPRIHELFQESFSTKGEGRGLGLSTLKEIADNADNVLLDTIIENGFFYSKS
Text: as §3

A further test concerns the target SA AgrC-IV (Staphylococcus aureus, UniProt Q309Z2). Description: β-Lactamase assay, reporter strain RN10829 (P2-agrA:P3-blaZ) with pagrC-IV. In kind it is cell-based. Particulars: 100 nM cognate AIP; ± SEM; -b = no inhibition recorded at the highest AIP concentration tested; -a = only partial inhibition observed; this study (curves in Fig. S22).
Text: as §3

For test [1], the system named is S. epidermidis (SE) agr-I. Particulars: fluorescence, cited from earlier work.
Test [2] has as its system S. epidermidis (SE) agr-II. Particulars: fluorescence, cited from earlier work.
Test [3] deals with S. epidermidis (SE) agr-III. Particulars: fluorescence, cited from earlier work.
The target in a further test is S. epidermidis agr-I (Staphylococcus epidermidis, UniProt Q5HMY3). Description: cell-based. In kind it is cell-based. The following applies: fluorescent reporter strain; peptides tested at 1000, 50, 2.5, 0.125 nM or in dose-response. How it is done:
as §1, with “μL).” for “μL). Control wells for 100% agr activity were wells replacing the peptide solution with TSB medium (15 μL).”
as §2, with “Control wells for 100% agr activity were wells replacing the peptide solution with TSB medium (15 μL).” left out

The test system of a further test is S. aureus (SA) agr-I. Particulars: fluorescence, cited from earlier work.
The subject of another test is S. aureus (SA) agr-II. The following applies: fluorescence, cited from earlier work.
The next test has as its system S. aureus (SA) agr-III. Particulars: fluorescence, cited from earlier work.
For another test, the system named is S. aureus (SA) agr-IV. The following applies: fluorescence, cited from earlier work.

SA AgrC-IV, sequence (Q309Z2 entry or part of it): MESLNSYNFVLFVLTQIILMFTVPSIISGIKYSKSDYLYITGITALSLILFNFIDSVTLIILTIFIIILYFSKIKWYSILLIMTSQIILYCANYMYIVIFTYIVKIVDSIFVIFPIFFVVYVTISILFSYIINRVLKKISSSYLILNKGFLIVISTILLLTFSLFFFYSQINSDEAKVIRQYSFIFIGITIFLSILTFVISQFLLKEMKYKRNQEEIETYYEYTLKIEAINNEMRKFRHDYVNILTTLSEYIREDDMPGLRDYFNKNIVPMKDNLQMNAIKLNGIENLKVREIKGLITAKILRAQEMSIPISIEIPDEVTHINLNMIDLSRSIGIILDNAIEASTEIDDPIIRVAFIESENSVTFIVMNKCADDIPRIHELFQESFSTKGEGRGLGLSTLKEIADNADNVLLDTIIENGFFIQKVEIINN
SA AgrC-I, sequence (O07911 entry or part of it): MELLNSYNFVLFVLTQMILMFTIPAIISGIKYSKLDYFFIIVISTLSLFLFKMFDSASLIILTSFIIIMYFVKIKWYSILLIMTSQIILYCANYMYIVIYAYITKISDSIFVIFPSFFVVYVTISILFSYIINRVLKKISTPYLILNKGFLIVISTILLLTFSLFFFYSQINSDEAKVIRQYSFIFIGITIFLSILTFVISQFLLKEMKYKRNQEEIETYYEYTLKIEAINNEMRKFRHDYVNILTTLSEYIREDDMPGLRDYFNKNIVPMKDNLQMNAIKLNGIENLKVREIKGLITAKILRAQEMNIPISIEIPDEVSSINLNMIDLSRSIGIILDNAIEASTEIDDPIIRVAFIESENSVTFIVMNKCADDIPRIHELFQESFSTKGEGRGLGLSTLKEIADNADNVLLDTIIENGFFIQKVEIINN
S. epidermidis agr-I, sequence (Q5HMY3 entry or part of it): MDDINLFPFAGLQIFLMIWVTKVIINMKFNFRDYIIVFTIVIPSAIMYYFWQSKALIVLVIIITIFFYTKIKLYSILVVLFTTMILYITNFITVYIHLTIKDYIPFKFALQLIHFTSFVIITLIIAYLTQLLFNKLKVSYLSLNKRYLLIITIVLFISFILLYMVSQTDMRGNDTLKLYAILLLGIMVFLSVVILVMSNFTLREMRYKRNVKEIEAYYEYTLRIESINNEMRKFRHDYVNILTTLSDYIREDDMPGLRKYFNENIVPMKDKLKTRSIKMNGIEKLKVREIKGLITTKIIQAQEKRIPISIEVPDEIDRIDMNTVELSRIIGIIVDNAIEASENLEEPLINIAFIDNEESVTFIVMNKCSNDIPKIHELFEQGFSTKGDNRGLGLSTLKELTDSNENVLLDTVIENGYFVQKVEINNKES
S. epidermidis agr-II, sequence (Q8VSX5 entry or part of it): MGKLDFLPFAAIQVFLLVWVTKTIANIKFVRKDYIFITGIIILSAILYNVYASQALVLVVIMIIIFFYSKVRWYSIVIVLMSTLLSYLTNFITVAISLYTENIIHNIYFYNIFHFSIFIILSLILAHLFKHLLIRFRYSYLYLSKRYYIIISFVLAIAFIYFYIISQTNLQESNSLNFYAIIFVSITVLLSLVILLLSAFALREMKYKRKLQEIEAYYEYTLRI

Take `CC(C)C[C@@H]1NC(=O)[C@H](Cc2ccc(O)cc2)NC(=O)[C@H](CO)NC(=O)[C@H](C)NC(=O)[C@@H](NC(=O)[C@@H]2CCCN2C(=O)[C@H](CC(N)=O)NC(=O)[C@H](Cc2ccc(O)cc2)NC(=O)[C@H](CCCCN)NC(=O)[C@H](C)NC(=O)[C@H](C)NC(=O)[C@@H](N)CC(N)=O)CSC1=O` [compound 7, S. epidermidis AIP-III] (H-NAAKYNPCASYL; thioester 8-C): at S. epidermidis agr-II, the “QS interaction in words (inhibition / activation), S. epidermidis agr-II” value is reported as “activator”. The IC50 (commonly the point on the concentration scale where inhibition reaches its midpoint) on SA AgrC-I is over 10000 nM; against SA AgrC-III, over 10000 nM; in test [1] (ref (11)) it was 34.3 nM. For the same compound, the “IC50, SA AgrC-II, b-lactamase assay” value against SA AgrC-II (100 nM cognate AIP, ± SEM, -b = no inhibition recorded at the highest AIP concentration tested, -a = only partial inhibition observed, this study (curves in Fig. S20)) is listed as “-b”. For the same compound, the “IC50, SA AgrC-IV, b-lactamase assay” value against SA AgrC-IV was “-b”. The “effect from supernatant (% inhibition, activation or no effect), SE agr-I” value in [1] (from supernatant, ref (18)) is listed as ~ 50%. Moreover, the “effect from supernatant (% inhibition, activation or no effect), SE agr-II” value in [2] (from supernatant, ref (18)) is “no effect”. For the same compound, the “effect from supernatant (% inhibition, activation or no effect), SE agr-III” value in test [3] (from supernatant, ref (18)) is given as “activation”.
Regarding `CC(C)[C@H](NC(=O)[C@H](CC(N)=O)NC(=O)[C@H](Cc1ccc(O)cc1)NC(=O)[C@@H](N)CO)C(=O)N[C@H]1CSC(=O)[C@H](Cc2ccccc2)NC(=O)[C@H](Cc2ccc(O)cc2)NC(=O)CNC(=O)CNC1=O` [compound 10, S. hominis AIP-I] (H-SYNVCGGYF; thioester 5-C; N-terminus assumed), the “QS interaction in words (inhibition / activation), S. epidermidis agr-I” value on S. epidermidis agr-I is reported as “activates”. The IC50 is 224 ± 37 nM on SA AgrC-I; over 1000 nM against SA AgrC-II; 338 ± 83 nM against SA AgrC-III; 0.624 nM in the test on S. aureus (SA) agr-I (ref (12)); 13 nM in the test on S. aureus (SA) agr-I (ref (13)); 31 nM with S. aureus (SA) agr-II (ref (13)). In addition, the half-inhibitory concentration (IC50) in the test on S. aureus (SA) agr-III (ref (13)) is 5 nM; with S. aureus (SA) agr-IV (ref (13)), 2910 nM; in [2] (ref (13)) it was 34 nM; in test [3] (ref (13)), 16 nM. Besides, at SA AgrC-IV, the “IC50, SA AgrC-IV, b-lactamase assay” value is recorded as “-b”. Besides, in the test with S. aureus (SA) agr-II (by supernatant, ref (12)), the “inhibition by supernatant, SA agr-II” value is recorded as ~ 70%. For the same compound, in the test with S. aureus (SA) agr-III (by supernatant, ref (12)), the “inhibition by supernatant, SA agr-III” value is recorded as ~ 80%. In addition, in the test with S. aureus (SA) agr-IV (by supernatant, ref (12)), the “inhibition by supernatant, SA agr-IV” value is reported as “no inhibition”.
